Source: patent US12655116B2, “Substituted isophthalic acid diamides” (Bayer Aktiengesellschaft, priority 2020, dated 2026)

Assays:
VIOTR [1] = test: Pre-emergence herbicidal action against VIOTR; assay type: in vivo, Viola tricolor; details: Viola tricolor, 504 h
In short: (§1)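 Herbicidal effect was assessed 3 weeks after treatment by visual comparison with untreated controls, 100% denoting dead plants. Aqueous WP or EC preparations had been applied at 600 to 800 l/ha with 0.2% wetting agent to the soil covering freshly sown seeds.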

ECHCG [2] = test: Pre-emergence herbicidal action against ECHCG; assay type: in vivo, Echinochloa crus-galli; details: Echinochloa crus-galli, 504 h, 80 g/ha
In short: as §1

HORMU [3] = test: Post-emergence herbicidal action against HORMU; assay type: in vivo, Hordeum murinum; details: Hordeum murinum, 504 h, dosage 20 g/ha
In short: (§2)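 Herbicidal effect was scored visually in percent after about 3 weeks in the greenhouse. Plants had been raised in sandy loam and treated post-emergence at the one-leaf stage with formulated compound at 600 to 800 l/ha water plus 0.2% wetting agent.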

ALOMY [4] = test: Post-emergence herbicidal action against ALOMY; assay type: in vivo, Alopecurus myosuroides; details: Alopecurus myosuroides, 504 h, dosage 20 g/ha, visual assessment about 3 weeks after treatment vs untreated controls
In short: as §2

PHBPU [5] = test: Post-emergence herbicidal action against PHBPU; assay type: in vivo, Pharbitis purpurea; details: Ipomoea purpurea, 504 h, dosage 20 g/ha
In short: as §2

MATIN [6] = test: Post-emergence herbicidal action against MATIN; assay type: in vivo, Matricaria inodora; details: Tripleurospermum inodorum, 504 h
In short: as §2

ECHCG [7] = test: Post-emergence herbicidal action against ECHCG; assay type: in vivo, Echinochloa crus-galli; details: Echinochloa crus-galli, 504 h, dosage 20 g/ha
In short: as §2

ABUTH [8] = test: Pre-emergence herbicidal action against ABUTH; assay type: in vivo, Abutilon theophrasti; details: Abutilon theophrasti, 504 h
In short: as §1

HORMU [9] = test: Pre-emergence herbicidal action against HORMU; assay type: in vivo, Hordeum murinum; details: Hordeum murinum, 504 h; 80 g/ha, pre-emergence
In short: as §1

MATIN [10] = test: Pre-emergence herbicidal action against MATIN; assay type: in vivo, Matricaria inodora; details: Tripleurospermum inodorum, 504 h
In short: as §1

VIOTR [11] = test: Post-emergence herbicidal action against VIOTR; assay type: in vivo, Viola tricolor; details: Viola tricolor, 504 h
In short: as §2

AMARE [12] = test: Post-emergence herbicidal action against AMARE; assay type: in vivo, Amaranthus retroflexus; details: Amaranthus retroflexus, 504 h, 20 g/ha, visual assessment about 3 weeks after treatment, 100% = plants have died, 0% = like control plants
In short: as §2

ABUTH [13] = test: Post-emergence herbicidal action against ABUTH; assay type: in vivo, Abutilon theophrasti; details: Abutilon theophrasti, 504 h, visual assessment about 3 weeks after treatment vs untreated controls
In short: as §2

AVEFA [14] = test: Post-emergence herbicidal action against AVEFA; assay type: in vivo, Avena fatua; details: Avena fatua, 504 h, 20 g/ha, visual assessment about 3 weeks after treatment, 100% = plants have died, 0% = like control plants
In short: as §2

AVEFA [15] = test: Pre-emergence herbicidal action against AVEFA; assay type: in vivo, Avena fatua; details: Avena fatua, 504 h; 80 g/ha, pre-emergence
In short: as §1

POLCO = test: Post-emergence herbicidal action against POLCO; assay type: in vivo, Polygonum convolvulus; details: Fallopia convolvulus, 504 h, dosage 20 g/ha
In short: as §2

STEME [16] = test: Post-emergence herbicidal action against STEME; assay type: in vivo, Stellaria media; details: Stellaria media, 504 h
In short: as §2

SETVI [17] = test: Post-emergence herbicidal action against SETVI; assay type: in vivo, Setaria viridis; details: Setaria viridis, 504 h
In short: as §2

SETVI [18] = test: Pre-emergence herbicidal action against SETVI; assay type: in vivo, Setaria viridis; details: Setaria viridis, 504 h
In short: as §1

DIGSA [19] = test: Pre-emergence herbicidal action against DIGSA; assay type: in vivo, Digitaria sanguinalis; details: Digitaria sanguinalis, 504 h
In short: as §1

VERPE [20] = test: Pre-emergence herbicidal action against VERPE; assay type: in vivo, Veronica persica; details: Veronica persica, 504 h
In short: as §1

DIGSA [21] = test: Post-emergence herbicidal action against DIGSA; assay type: in vivo, Digitaria sanguinalis; details: Digitaria sanguinalis, 504 h
In short: as §2

AMARE [22] = test: Pre-emergence herbicidal action against AMARE; assay type: in vivo, Amaranthus retroflexus; details: Amaranthus retroflexus, 504 h, scored visually after 3 weeks vs untreated controls, 100% = plants have died, 0% = like control plants
In short: as §1

LOLRI = test: Pre-emergence herbicidal action against LOLRI; assay type: in vivo, Lolium rigidum; details: Lolium rigidum, 504 h, 80 g/ha
In short: as §1

STEME [23] = test: Pre-emergence herbicidal action against STEME; assay type: in vivo, Stellaria media; details: Stellaria media, 504 h
In short: as §1

VERPE [24] = test: Post-emergence herbicidal action against VERPE; assay type: in vivo, Veronica persica; details: Veronica persica, 504 h, 20 g/ha
In short: as §2

ALOMY [25] = test: Pre-emergence herbicidal action against ALOMY; assay type: in vivo, Alopecurus myosuroides; details: Alopecurus myosuroides, 504 h; 80 g/ha, pre-emergence, scored visually after 3 weeks vs untreated controls (100% = plants have died, 0% = like control plants)
In short: as §1

PHBPU [26] = test: Pre-emergence herbicidal action against PHBPU; assay type: in vivo, Pharbitis purpurea; details: Ipomoea purpurea, 504 h, dosage 80 g/ha
In short: as §1

Cc1c(C(=O)Nc2nnnn2C)ccc(C(F)(F)F)c1C(=O)NC1CC1 [Example 1-27]
pest or weed control at 20 g/ha (VIOTR [1]; dosage 20 g/ha): 100% | pest or weed control at 80 g/ha (VIOTR [1]; dosage 80 g/ha): 100% | pest or weed control at 80 g/ha (ECHCG [2]): 100% | pest or weed control at 20 g/ha (HORMU [3]): 80% | pest or weed control at 20 g/ha (ALOMY [4]): 100% | pest or weed control at 20 g/ha (PHBPU [5]): 90% | pest or weed control at 5 g/ha (MATIN [6]; dosage 5 g/ha): 80% | pest or weed control at 20 g/ha (MATIN [6]; dosage 20 g/ha): 100% | pest or weed control at 20 g/ha (ECHCG [7]): 80% | pest or weed control at 80 g/ha (ABUTH [8]; 80 g/ha, scored visually after 3 weeks vs untreated controls (100% = plants have died, 0% = like control plants)): 100% | pest or weed control at 20 g/ha (ABUTH [8]; dosage 20 g/ha, scored visually after 3 weeks vs untreated controls, 100% = plants have died, 0% = like control plants, read-out: Pre-emergence action against ABUTH (herbicidal activity in percent)): 100% | pest or weed control at 80 g/ha (HORMU [9]): 80% | pest or weed control at 20 g/ha (MATIN [10]; dosage 20 g/ha): 100% | pest or weed control at 80 g/ha (MATIN [10]; dosage 80 g/ha): 100% | pest or weed control at 5 g/ha (VIOTR [11]; 5 g/ha): 100% | pest or weed control at 20 g/ha (VIOTR [11]; 20 g/ha): 100% | pest or weed control at 20 g/ha (AMARE [12]): 100% | pest or weed control at 5 g/ha (ABUTH [13]; dosage 5 g/ha): 100% | pest or weed control at 20 g/ha (ABUTH [13]; dosage 20 g/ha): 100% | pest or weed control at 20 g/ha (AVEFA [14]): 100% | pest or weed control at 80 g/ha (AVEFA [15]): 100% | pest or weed control at 20 g/ha (POLCO): 90% | pest or weed control at 20 g/ha (STEME [16]; 20 g/ha): 100% | pest or weed control at 5 g/ha (STEME [16]; dosage 5 g/ha): 100% | pest or weed control at 5 g/ha (SETVI [17]; dosage 5 g/ha): 100% | pest or weed control at 20 g/ha (SETVI [17]; dosage 20 g/ha): 100% | pest or weed control at 20 g/ha (SETVI [18]; dosage 20 g/ha): 100% | pest or weed control at 80 g/ha (SETVI [18]; dosage 80 g/ha): 100% | pest or weed control at 20 g/ha (DIGSA [19]; dosage 20 g/ha): 100% | pest or weed control at 80 g/ha (DIGSA [19]; dosage 80 g/ha): 100% | pest or weed control at 20 g/ha (VERPE [20]; dosage 20 g/ha): 80% | pest or weed control at 80 g/ha (VERPE [20]; dosage 80 g/ha): 90% | pest or weed control at 5 g/ha (DIGSA [21]; 5 g/ha): 90% | pest or weed control at 20 g/ha (DIGSA [21]; 20 g/ha): 100% | pest or weed control at 20 g/ha (AMARE [22]; 20 g/ha): 100% | pest or weed control at 80 g/ha (AMARE [22]; 80 g/ha): 100% | pest or weed control at 80 g/ha (LOLRI): 80% | pest or weed control at 20 g/ha (STEME [23]; dosage 20 g/ha): 90% | pest or weed control at 80 g/ha (STEME [23]; dosage 80 g/ha): 100% | pest or weed control at 20 g/ha (VERPE [24]): 100% | pest or weed control at 80 g/ha (ALOMY [25]): 90% | pest or weed control at 80 g/ha (PHBPU [26]): 100%
